The MIC50 is an inhibitory concentration at the 50% level, which refers to growth in some studies and to a panel of isolates in others. Usually EC50 stands for the midpoint of the concentration-response curve.

In brackets after ≈: the same amount, converted by molar mass.

Data on 2 compounds can be found in US20140308317A1, “Polymeric Compounds And Methods Of Making And Using The Same” (CELLCEUTIX CORPORATION, priority 2012, published 2014).

The test system of data set [1] is Enterococcus faecalis ATCC 29212. In words: Minimum Inhibitory Concentration (MIC), modified microbroth dilution. The format is cell-based. The conditions noted are these: E. faecalis (29212), overnight incubation (18 hours). In general terms: Broth dilution looks for growth in wells or tubes with falling amounts of substance.
In data set [2] the test system is Staphylococcus aureus ATCC 27660. Described as above. The data set is classed as cell-based. The conditions noted are these: S. aureus (27660), overnight incubation (18 hours).
Data set [3] relates to Klebsiella pneumoniae ATCC 13883. The description is as above. The format is cell-based. To be noted: K. pneumoniae (13883), overnight incubation (18 hours).
Another data set deals with E. Coli ATCC 25922. The description is as above. The data set is classed as cell-based. The conditions noted are these: E. coli (25922), overnight incubation (18 hours).
Another data set relates to NIH/3T3 cells, CRL-1658. Kind of data set: Cytotoxicity colorimetric (tetrazolium) assay. The format is cell-based, mouse. The conditions noted are these: NIH/3T3 cells; one hour with compound in serum-free media. The method in brief: (§1)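 HepG2 (MEM, 10% FBS) and NIH/3T3 (DMEM, 10% BCS) monolayers seeded at 2×10^4 cells/well 24 h before use, then exposed to compounds for one hour in serum-free medium. After return to serum-containing medium, viable cells read by tetrazolium bioreduction to formazan. EC50 in μg/mL from four-parameter logistic fit.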

A short description of data set [4]: Cytotoxicity colorimetric (tetrazolium) assay. The format is cell-based, mouse. To be noted: mouse, NIH/3T3 cells (CRL-1658), NIH/3T3 cells; one hour with compound in serum-free media. The procedure, abridged: as §1
The next data set has as its system HepG2, HB-8065. In words: Cytotoxicity colorimetric (tetrazolium) assay. The data set is classed as cell-based, human. To be noted: HepG2 cells; one hour with compound in serum-free media. The method in brief:
as §1

Data set [5] is described as follows: Cytotoxicity colorimetric (tetrazolium) assay. To be noted: human, HepG2 cells (HB-8065), HepG2 cells; one hour with compound in serum-free media. The format is cell-based, human. The method in brief: as §1
The subject of data set [6] is Pseudomonas aeruginosa ATCC 10145. Kind of data set: Minimum Inhibitory Concentration (MIC), modified microbroth dilution. To be noted: P. aeruginosa (10145), overnight incubation (18 hours). The format is cell-based.
Data set [7] relates to S. enteritidis ATCC 13076. Kind of data set: Time-kill study. The format is cell-based. The method, then: Time-kill studies of the compounds versus S. enteritidis ATCC 13076, E. coli ATCC25922, E. coli (lab strain) D31, and S. aureus ATCC27660 were determined in a standard protocol by measuring the time it takes to reduce the initial inoculums 3 log units. Three mL of cation-adjusted Mueller-Hinton medium was inoculated with 20 μL of frozen bacterial stock and incubated at 37° C. on a shaker platform (at 250 rpm) overnight. The suspension was diluted to approximately 5×10^5 cfu/mL and treated with 2×, 5×, 10×, and 20×MIC (MIC=1 μg/mL). The compound stock solutions were prepared at 10 mg/mL in DMSO. Time points were collected and viable bacteria were counted on MH Agar plates after an 18 hour incubation.
The time kill study was carried on Compound 200 against S. enteritidis ATCC 13076.

For the compound `NCCCOc1cc(OCCCN)cc(-c2ccc3c(c2)C(=O)c2cc(-c4cc(OCCCN)cc(OCCCN)c4)ccc2CC3)c1` [Compound 156], the MIC50 in data set [1] (Enterococcus faecalis, ATCC29212, read-out: MIC50 E. faecalis) worked out at 12.5 µg/mL (≈ 19.1 µM); in data set [2] (Staphylococcus aureus, ATCC27660, read-out: MIC50 S. aureus) it was 0.098 µg/mL (≈ 0.15 µM); in data set [3] (Klebsiella pneumoniae, ATCC13883, read-out: MIC50 K. Pnuemnoiae), 12.5 µg/mL (≈ 19.1 µM); with E. Coli ATCC 25922 (Escherichia coli, ATCC25922, read-out: MIC50 E. coli), 3.13 µg/mL (≈ 4.79 µM); in data set [6] (Pseudomonas aeruginosa, ATCC10145, read-out: MIC50 P. Aeruginosa), 6.25 µg/mL (≈ 9.57 µM). Besides, the “EC50 NIH 3T3 (cytotoxicity)” value in the data set with NIH/3T3 cells, CRL-1658 was 88.1 µg/mL (≈ 135 µM). Besides, the EC50 at 1 h in [4] was found to be 49.4 µg/mL (≈ 75.7 µM); in data set [5] it was 74.2 µg/mL (≈ 114 µM). Also, in the data set on HepG2, HB-8065, the “EC50 HepG2 (cytotoxicity)” value worked out at 143.7 µg/mL (≈ 220 µM).
As to `NCCCOc1cc(OCCCN)cc(-c2ccc3sc4ccc(-c5cc(OCCCN)cc(OCCCN)c5)cc4c3c2)c1` [Compound 200], in data set [1], the “MIC50 E. faecalis” value was found to be 0.39 µg/mL (≈ 0.62 µM). The “MIC50 S. aureus” value in data set [2] is 0.049 µg/mL (≈ 0.0779 µM). In addition, the “MIC50 K. Pnuemnoiae” value in [3] turned out to be 1.56 µg/mL (≈ 2.48 µM). Further, the “time at which bacterial growth was reduced more than 3 log” value in [7] (2×MIC) amounted to 3.75 hour; in data set [7] (5×MIC) it was 1.55 hour; in [7] (10×MIC) it was 1.35 hour. Moreover, the “MIC50 E. coli” value against E. Coli ATCC 25922 amounted to 0.78 µg/mL (≈ 1.24 µM). Further, the “EC50 NIH 3T3 (cytotoxicity)” value with NIH/3T3 cells, CRL-1658 turned out to be 155 µg/mL (≈ 246 µM). Also, the “EC50 HepG2 (cytotoxicity)” value with HepG2, HB-8065 is 126 µg/mL (≈ 200 µM). The “MIC50 P. Aeruginosa” value in data set [6] was 3.13 µg/mL (≈ 4.98 µM).
